The term IC50 denotes the concentration that inhibits the measured activity by half.

Test [1] has as its system HeLa. Put plainly: Cytotoxicity against human HeLa cells assessed as reduction in cell viability incubated for 72 hrs by EZ-Cytox colorimetric assay. The format is functional, cell-based.
In test [2] the test system is A549. Put plainly: Cytotoxicity against human A549 cells assessed as reduction in cell viability incubated for 72 hrs by EZ-Cytox colorimetric assay. The format is functional, cell-based. The following applies: for IC50: A549, 72 h.
Test [3] relates to MDA-MB-231. Put plainly: Cytotoxicity against human MDA-MB-231 cells assessed as reduction in cell viability incubated for 72 hrs by EZ-Cytox colorimetric assay. The format is functional, cell-based. As to conditions: for IC50: MDA-MB-231, 72 h.
The test system of test [4] is SW480. Put plainly: Cytotoxicity against human SW480 cells assessed as reduction in cell viability incubated for 72 hrs by EZ-Cytox colorimetric assay. As to conditions: for IC50: SW480, 72 h. The class given is functional, cell-based.
Test [5] deals with U2OS. Put plainly: Cytotoxicity against human U2OS cells assessed as reduction in cell viability incubated for 72 hrs by EZ-Cytox colorimetric assay. The class given is functional, cell-based.
Test [6] has as its target Histone deacetylase. The test can be described thus: Inhibition of HDAC in human HeLa nuclear extract using Fluor de Lys as substrate incubated for 20 mins by fluorometric assay. The class given is subcellular, Nucleus.

Activity calls are given as the source filed them. The rule behind the calls is not given here.

Turning to `CNc1ccc(C(=O)[C@H](C)C[C@@H](C)C(=O)O)cc1`, the IC50 in test [1], in test [2], in test [3], in test [4], in test [5] and in test [6] was more than 100 µM throughout.
In test [6], `CNC(=O)/C=C/C(C)=C/[C@@H](C)C(=O)c1ccc(N(C)C)cc1` showed an IC50 of more than 100 µM.
As for `CC(/C=C/C(N)=O)=C\[C@@H](C)C(=O)c1ccc(N(C)C)cc1`, the IC50 in test [6] is more than 100 µM.
Turning to `CC(/C=C/C(=O)N[C@@H](CCC(=O)O)C(=O)O)=C\[C@@H](C)C(=O)c1ccc(N(C)C)cc1`, the IC50 in test [6] was more than 100 µM.
For `CC(/C=C/C(=O)Nc1ccc(C(=O)N[C@@H](CCC(N)=O)C(=O)O)cc1)=C\[C@@H](C)C(=O)c1ccc(N(C)C)cc1`, the IC50 in test [1] was more than 100 µM; in test [2], more than 100 µM; in test [3] it was more than 100 µM; in test [4], more than 100 µM; in test [5] it was more than 100 µM; in test [6], 19.96 µM.
`CC(/C=C/C(=O)N[C@@H](CCC(N)=O)C(=O)O)=C\[C@@H](C)C(=O)c1ccc(N(C)C)cc1`: the IC50 in test [6] was more than 100 µM.
As for `CC(/C=C/C(=O)NO)=C\[C@@H](C)C(=O)c1ccc(N(C)C)cc1`, the outcome in test [1], in test [2], in test [3], in test [4] and in test [5] was Active.
For the molecule `C[C@H](C[C@@H](C)C(=O)c1ccc(N(C)C)cc1)C(=O)O`, the IC50 is more than 100 µM in test [1]; more than 100 µM in test [2]; more than 100 µM in test [3]; more than 100 µM in test [4]; more than 100 µM in test [5]; 39.67 µM in test [6].
For the molecule `CC(/C=C/C(=O)NO[C@@H]1O[C@H](CO)[C@@H](O)[C@H](O)[C@H]1O)=C\[C@@H](C)C(=O)c1ccc(N(C)C)cc1`, the results for the IC50 in test [4], in test [5] and in test [6] were 72 µM, 94.9 µM and 23.63 µM, respectively.
For the molecule `CC(/C=C/C(=O)O)=C\[C@@H](C)C(=O)c1ccc(N(C)C)cc1` [TRICHOSTATIC ACID], the IC50 in test [6] worked out at 95.13 µM.

The record behind these values is ChEMBL document CHEMBL4840333, “Ulleunganilines A-C, Trichostatin Analogues Bearing a Modified Side Chain from Streptomyces sp. 13F051” (J Nat Prod, 2021).
